Values quoted from earlier work as cited in patent publication US20190151329A1, “THERAPEUTIC USE OF DIAMINOPHENOTHIAZINES” (WisTa Laboratories Ltd., priority 2007, published 2019).
Read-outs that look alike come from different tables or passages of the source.

Experiments:
[1] = cited from earlier work; for Blood Ox-MT concentration: human whole blood
[2] = cited from earlier work
[3] = repeat dose 15 mg/24 hr, day 14
[4] = repeat dose 15 mg/24 hr, day 21
[5] = repeat dose 300 mg/24 hr, day 7
[6] = repeat dose 300 mg/24 hr, day 14
[7] = repeat dose 300 mg/24 hr, day 21

## CN(C)c1ccc2nc3ccc(=[N+](C)C)cc-3sc2c1 [MTC, methylthioninium chloride]
[1]; 100 mg MTC IV, 0.83 hr
  Blood Ox-MT concentration: 0.39 µmol/L
[1]; 100 mg MTC IV, 1.01 hr
  Blood Ox-MT concentration: 0.41 µmol/L
[1]; 100 mg MTC IV, 1.99 hr
  Blood Ox-MT concentration: 0.26 µmol/L
[1]; 100 mg MTC IV, 4 hr
  Blood Ox-MT concentration: 0.18 µmol/L
[1]; 100 mg MTC oral (mean of with and without Mesna), 0 hr
  Blood Ox-MT concentration: 0 µmol/L
[1]; 100 mg MTC oral (mean of with and without Mesna), 0.09 hr
  Blood Ox-MT concentration: 0.00064 µmol/L
[1]; 100 mg MTC oral (mean of with and without Mesna), 0.15 hr
  Blood Ox-MT concentration: 0.0011 µmol/L
[1]; 100 mg MTC oral (mean of with and without Mesna), 0.24 hr
  Blood Ox-MT concentration: 0.0064 µmol/L
[1]; 100 mg MTC oral (mean of with and without Mesna), 0.33 hr
  Blood Ox-MT concentration: 0.017 µmol/L
[1]; 100 mg MTC oral (mean of with and without Mesna), 0.5 hr
  Blood Ox-MT concentration: 0.041 µmol/L
[1]; 100 mg MTC oral (mean of with and without Mesna), 0.83 hr
  Blood Ox-MT concentration: 0.055 µmol/L
[1]; 100 mg MTC oral (mean of with and without Mesna), 1.01 hr
  Blood Ox-MT concentration: 0.064 µmol/L
[1]; 100 mg MTC oral (mean of with and without Mesna), 1.99 hr
  Blood Ox-MT concentration: 0.069 µmol/L
[1]; 100 mg MTC oral (mean of with and without Mesna), 4 hr
  Blood Ox-MT concentration: 0.038 µmol/L
[1]; human, 100 mg MTC, IV
  % of dose excreted in urine at 24 hr: 28.6 % of dose
  AUC: 0.134 µmol/min/mL
  Cl (clearance): 3 L/h
  Estimated elimination T½: blood (1-4 hr): 5.25 h
[1]; human, 100 mg MTC, Oral
  % of dose excreted in urine at 24 hr: 18.6 % of dose
  AUC: 0.011 µmol/min/mL
  Estimated elimination T½: urine (4-24 hr): 6.6 h
[1]; human, did not differ between oral and IV dosing
  fraction of total MT excreted in the urine in the L-MB form: approximately ⅓
[2]; repeat dose 15 mg/24 hr
  24 hr urinary excretion, L-MT (summary line): 7.2 mg
  24 hr urinary excretion, Ox-MT (summary line): 5.8 mg
  % of total urinary excretion, L-MT: 55.3%
  % of total urinary excretion, Ox-MT: 44.8%
  F (apparent bioavailability), L-MT: 0.48
  F (apparent bioavailability), Ox-MT: 0.39
[2]; repeat dose 15 mg/24 hr, day 7
  24-hr urinary excretion, L-MT: 7.2 mg
  24-hr urinary excretion, Ox-MT: 6.1 mg
[2]; [3]
  24-hr urinary excretion, L-MT: 8 mg
  24-hr urinary excretion, Ox-MT: 5.3 mg
[2]; [4]
  24-hr urinary excretion, L-MT: 6.4 mg
  24-hr urinary excretion, Ox-MT: 6.1 mg
[2]; repeat dose 300 mg/24 hr
  24 hr urinary excretion, L-MT (summary line): 69.2 mg
  24 hr urinary excretion, Ox-MT (summary line): 43.4 mg
  % of total urinary excretion, L-MT: 61.5%
  % of total urinary excretion, Ox-MT: 38.6%
  F (apparent bioavailability), L-MT: 0.23
  F (apparent bioavailability), Ox-MT: 0.14
[2]; [5]
  24-hr urinary excretion, L-MT: 75.6 mg
  24-hr urinary excretion, Ox-MT: 43.9 mg
[2]; [6]
  24-hr urinary excretion, L-MT: 71.6 mg
  24-hr urinary excretion, Ox-MT: 41.1 mg
[2]; [7]
  24-hr urinary excretion, L-MT: 60.4 mg
  24-hr urinary excretion, Ox-MT: 45.2 mg
[2]; single dose 25 mg
  % of total urinary excretion, L-MT: 15.8%
  % of total urinary excretion, Ox-MT: 84.2%
  F (apparent bioavailability), L-MT: 0.11
  F (apparent bioavailability), Ox-MT: 0.60
  F (apparent bioavailability), Total-MT: 0.71
  urinary excretion, L-MT: 2.8 mg
  urinary excretion, Ox-MT: 14.9 mg
  urinary excretion, Total-MT: 17.7 mg
[2]; single dose 50 mg
  % of total urinary excretion, L-MT: 8.8%
  % of total urinary excretion, Ox-MT: 91.2%
  F (apparent bioavailability), L-MT: 0.054
  F (apparent bioavailability), Ox-MT: 0.56
  F (apparent bioavailability), Total-MT: 0.62
  urinary excretion, L-MT: 2.7 mg
  urinary excretion, Ox-MT: 28.1 mg
  urinary excretion, Total-MT: 30.8 mg
[2]; single dose 100 mg
  % of total urinary excretion, L-MT: 15.2%
  % of total urinary excretion, Ox-MT: 84.8%
  F (apparent bioavailability), L-MT: 0.060
  F (apparent bioavailability), Ox-MT: 0.34
  F (apparent bioavailability), Total-MT: 0.40
  urinary excretion, L-MT: 6 mg
  urinary excretion, Ox-MT: 33.5 mg
  urinary excretion, Total-MT: 39.5 mg
